Experimental data: patent US12583884B2, “3beta-(benzyloxy)-17alpha-methyl-pregn-5-en-20-one for use in the treatment of cognitive disorders” (AELIS FARMA, priority 2018, dated 2026)
Read-outs that look alike come from different tables or passages of the source.

Key:
Muscarinic M1 = Muscarinic M1 (Homo sapiens, UniProt P11229); test: CEREP binding profile: M1
Text: (§1) The CEREP High-throughput profile consists of a broad collection of 80 transmembrane and soluble receptors, ion channels and G-Protein coupled receptors.

Serotonin 5-HT2B = biological target: T1, Serotonin 5-HT2B (Homo sapiens, UniProt P41595); test: CEREP binding profile: 5-HT2B
T1 construct: CEREP (contract panel)
Text: as §1

GABA BZD (central) = test: CEREP binding profile: BZD (central); settings: 10 μM
Text: as §1

Prostanoid EP2 = Prostanoid EP2 (Homo sapiens, UniProt P43116); test: CEREP binding profile: EP2
Text: as §1

K+ channels KV = test: CEREP binding profile: KV; settings: 10 μM
Text: as §1

Muscarinic M4 = Muscarinic M4 (Homo sapiens, UniProt P08173); test: CEREP binding profile: M4
Text: as §1

Neurokinin NK1 = Neurokinin NK1 (Homo sapiens, UniProt P25103); test: CEREP binding profile: NK1
Text: as §1

Serotonin 5-HT2A = biological target: T2, Serotonin 5-HT2A (Homo sapiens, UniProt P28223); test: CEREP binding profile: 5-HT2A
T2 construct: CEREP (contract panel)
Text: as §1

Endothelin ETA = biological target: T3, Endothelin ETA (Homo sapiens, UniProt P25101); test: CEREP binding profile: ETA
T3 construct: CEREP
Text: as §1

Purinergic P2Y = test: CEREP binding profile: P2Y; settings: 10 μM
Text: as §1

[1] = biological target: T4, Benzodiazepine BZD (periph) (Rattus norvegicus, UniProt P16257); test: CEREP binding profile: BZD (periph)
T4 construct: CEREP (contract panel)
Text: as §1

GABA Cl- channel = test: CEREP binding profile: Cl- channel; settings: 10 μM
Text: as §1

Growth factors PDGF = test: CEREP binding profile: PDGF; settings: 10 μM
Text: as §1

Serotonin 5-HT5a = biological target: T5, Serotonin 5-HT5a (Homo sapiens, UniProt P47898); test: CEREP binding profile: 5-HT5a
T5 construct: CEREP (contract panel)
Text: as §1

[2] = biological target: T6, Steroid nuclear receptors PR (Homo sapiens, UniProt P06401); test: Binding: PR
T6 construct: CEREP
T6 sequence (P06401 1-933): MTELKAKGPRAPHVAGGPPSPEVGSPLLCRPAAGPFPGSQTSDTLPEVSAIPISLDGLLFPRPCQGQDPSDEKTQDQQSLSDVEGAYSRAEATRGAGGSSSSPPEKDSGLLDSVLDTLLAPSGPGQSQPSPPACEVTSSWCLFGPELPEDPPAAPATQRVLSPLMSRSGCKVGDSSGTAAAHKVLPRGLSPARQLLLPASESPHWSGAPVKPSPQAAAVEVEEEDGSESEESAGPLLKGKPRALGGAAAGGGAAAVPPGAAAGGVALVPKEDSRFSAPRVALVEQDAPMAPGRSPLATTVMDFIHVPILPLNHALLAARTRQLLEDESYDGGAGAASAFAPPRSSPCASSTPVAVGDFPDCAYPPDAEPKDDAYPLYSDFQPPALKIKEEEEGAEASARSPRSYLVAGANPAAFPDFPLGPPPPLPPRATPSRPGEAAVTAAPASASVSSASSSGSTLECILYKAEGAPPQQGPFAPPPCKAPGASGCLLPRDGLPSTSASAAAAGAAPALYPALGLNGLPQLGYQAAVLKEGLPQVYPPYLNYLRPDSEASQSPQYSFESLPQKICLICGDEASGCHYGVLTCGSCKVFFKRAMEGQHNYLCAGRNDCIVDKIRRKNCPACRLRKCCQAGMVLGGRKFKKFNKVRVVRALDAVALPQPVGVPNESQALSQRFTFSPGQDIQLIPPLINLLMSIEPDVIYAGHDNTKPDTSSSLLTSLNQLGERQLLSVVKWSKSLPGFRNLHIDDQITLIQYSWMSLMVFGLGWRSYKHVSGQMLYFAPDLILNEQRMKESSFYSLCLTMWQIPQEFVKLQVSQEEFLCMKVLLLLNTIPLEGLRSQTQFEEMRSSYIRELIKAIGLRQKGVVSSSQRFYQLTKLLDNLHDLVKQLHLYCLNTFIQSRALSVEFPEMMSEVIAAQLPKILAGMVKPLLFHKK
Text: as §1

Adrenergic beta1 = biological target: T7, Adrenergic beta1 (Homo sapiens, UniProt P08588); test: CEREP binding profile: beta1
T7 construct: CEREP
Text: as §1

Glutamate PCP = test: CEREP binding profile: PCP; settings: 10 μM
Text: as §1

Galanin GAL2 = Galanin GAL2 (Homo sapiens, UniProt O43603); test: CEREP binding profile: GAL2
Text: as §1

Melanocortin MC4 = Melanocortin MC4 (Homo sapiens, UniProt P32245); test: CEREP binding profile: MC4
Text: as §1

[3] = biological target: Opioid and opioid-like NOP (ORL1) (Homo sapiens, UniProt P41146); test: CEREP binding profile: NOP; settings: 10 μM
Text: as §1

Prostanoid IP (PGI2) = Prostanoid IP (PGI2) (Homo sapiens, UniProt P43119); test: CEREP binding profile: IP
Text: as §1

Ca2+ channels Ca2+-L = test: CEREP binding profile: Ca2+-L; settings: 10 μM
Text: as §1

Chemokines CXCR2 = biological target: T8, Chemokines CXCR2 (Homo sapiens, UniProt P25025); test: CEREP binding profile: CXCR2
T8 construct: CEREP
Text: as §1

Muscarinic M3 = Muscarinic M3 (Homo sapiens, UniProt P20309); test: CEREP binding profile: M3
Text: as §1

Histamine H2 = Histamine H2 (Homo sapiens, UniProt P25021); test: CEREP binding profile: H2
Text: as §1

Cytokines TNF-alpha = test: CEREP binding profile: TNF-alpha; settings: 10 μM
Text: as §1

Neuropetide Y Y2 = Neuropetide Y Y2 (Homo sapiens, UniProt P49146); test: CEREP binding profile: Y2
Text: as §1

[4] = biological target: Opioid and opioid-like delta2 (DOP) (Homo sapiens, UniProt P41143); test: CEREP binding profile: delta2; settings: 10 μM
Text: as §1

Neurotensin NTS1 (NT1) = Neurotensin NTS1 (NT1) (Homo sapiens, UniProt P30989); test: CEREP binding profile: NTS1
Text: as §1

Serotonin 5-HT3 = biological target: T9, Serotonin 5-HT3 (Homo sapiens, UniProt P46098); test: CEREP binding profile: 5-HT3
T9 construct: CEREP
Text: as §1

T1 sequence (P41595 whole entry): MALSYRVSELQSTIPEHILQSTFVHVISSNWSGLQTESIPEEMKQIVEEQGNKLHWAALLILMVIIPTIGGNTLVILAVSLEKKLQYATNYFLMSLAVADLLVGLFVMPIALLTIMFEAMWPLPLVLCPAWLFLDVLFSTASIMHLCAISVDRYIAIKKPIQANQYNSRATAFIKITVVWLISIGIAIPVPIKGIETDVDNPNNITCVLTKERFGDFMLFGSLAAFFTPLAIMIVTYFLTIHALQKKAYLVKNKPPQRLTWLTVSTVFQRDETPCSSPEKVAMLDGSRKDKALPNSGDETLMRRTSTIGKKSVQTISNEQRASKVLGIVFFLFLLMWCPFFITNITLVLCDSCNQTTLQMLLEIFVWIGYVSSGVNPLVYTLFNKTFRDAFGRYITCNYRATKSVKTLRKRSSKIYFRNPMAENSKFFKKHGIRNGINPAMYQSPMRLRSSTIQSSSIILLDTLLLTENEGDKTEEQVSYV
Chain of Neuropetide Y Y2 (P49146 whole entry): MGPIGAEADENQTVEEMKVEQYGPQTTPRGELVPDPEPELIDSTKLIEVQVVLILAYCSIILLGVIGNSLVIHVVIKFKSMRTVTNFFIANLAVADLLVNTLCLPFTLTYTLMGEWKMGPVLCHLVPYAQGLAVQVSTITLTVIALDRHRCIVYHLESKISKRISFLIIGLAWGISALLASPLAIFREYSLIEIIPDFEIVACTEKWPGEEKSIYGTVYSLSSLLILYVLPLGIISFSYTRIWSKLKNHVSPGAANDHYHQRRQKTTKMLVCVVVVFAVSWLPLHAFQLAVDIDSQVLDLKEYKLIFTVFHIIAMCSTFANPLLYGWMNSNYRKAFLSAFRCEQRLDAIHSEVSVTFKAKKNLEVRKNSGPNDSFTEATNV
Chain of Histamine H2 (P25021 whole entry): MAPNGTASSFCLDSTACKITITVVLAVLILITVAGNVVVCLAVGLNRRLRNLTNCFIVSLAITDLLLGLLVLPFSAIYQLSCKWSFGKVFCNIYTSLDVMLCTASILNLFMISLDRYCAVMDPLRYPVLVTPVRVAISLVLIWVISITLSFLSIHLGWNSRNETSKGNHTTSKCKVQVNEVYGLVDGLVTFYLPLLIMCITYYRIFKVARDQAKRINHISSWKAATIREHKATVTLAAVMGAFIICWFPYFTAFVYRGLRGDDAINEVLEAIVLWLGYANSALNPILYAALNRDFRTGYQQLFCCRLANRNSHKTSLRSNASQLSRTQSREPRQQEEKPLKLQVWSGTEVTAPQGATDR
Chain of Muscarinic M1 (P11229 whole entry): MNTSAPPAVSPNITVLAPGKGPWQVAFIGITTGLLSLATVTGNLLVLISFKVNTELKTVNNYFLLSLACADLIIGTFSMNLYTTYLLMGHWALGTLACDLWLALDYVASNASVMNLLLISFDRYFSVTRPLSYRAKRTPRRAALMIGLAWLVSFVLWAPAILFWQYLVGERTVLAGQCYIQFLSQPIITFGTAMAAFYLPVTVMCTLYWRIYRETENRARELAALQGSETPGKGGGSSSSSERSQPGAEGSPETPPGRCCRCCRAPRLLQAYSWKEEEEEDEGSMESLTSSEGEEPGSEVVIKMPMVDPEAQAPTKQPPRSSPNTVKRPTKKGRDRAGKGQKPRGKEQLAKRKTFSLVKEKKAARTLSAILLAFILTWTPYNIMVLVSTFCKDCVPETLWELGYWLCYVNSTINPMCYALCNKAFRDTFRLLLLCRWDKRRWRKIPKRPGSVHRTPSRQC
Chain of Neurotensin NTS1 (NT1) (P30989 whole entry): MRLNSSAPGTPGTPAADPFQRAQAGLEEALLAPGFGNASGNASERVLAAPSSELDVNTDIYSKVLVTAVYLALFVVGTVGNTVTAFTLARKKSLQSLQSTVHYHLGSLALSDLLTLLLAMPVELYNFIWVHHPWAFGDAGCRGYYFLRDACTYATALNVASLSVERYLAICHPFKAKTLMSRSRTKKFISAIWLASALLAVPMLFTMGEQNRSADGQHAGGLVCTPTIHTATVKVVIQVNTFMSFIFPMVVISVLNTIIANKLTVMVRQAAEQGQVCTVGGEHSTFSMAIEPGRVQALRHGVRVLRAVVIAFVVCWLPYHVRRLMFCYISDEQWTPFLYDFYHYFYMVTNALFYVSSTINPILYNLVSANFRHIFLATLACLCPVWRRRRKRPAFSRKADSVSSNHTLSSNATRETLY
Chain of Muscarinic M3 (P20309 whole entry): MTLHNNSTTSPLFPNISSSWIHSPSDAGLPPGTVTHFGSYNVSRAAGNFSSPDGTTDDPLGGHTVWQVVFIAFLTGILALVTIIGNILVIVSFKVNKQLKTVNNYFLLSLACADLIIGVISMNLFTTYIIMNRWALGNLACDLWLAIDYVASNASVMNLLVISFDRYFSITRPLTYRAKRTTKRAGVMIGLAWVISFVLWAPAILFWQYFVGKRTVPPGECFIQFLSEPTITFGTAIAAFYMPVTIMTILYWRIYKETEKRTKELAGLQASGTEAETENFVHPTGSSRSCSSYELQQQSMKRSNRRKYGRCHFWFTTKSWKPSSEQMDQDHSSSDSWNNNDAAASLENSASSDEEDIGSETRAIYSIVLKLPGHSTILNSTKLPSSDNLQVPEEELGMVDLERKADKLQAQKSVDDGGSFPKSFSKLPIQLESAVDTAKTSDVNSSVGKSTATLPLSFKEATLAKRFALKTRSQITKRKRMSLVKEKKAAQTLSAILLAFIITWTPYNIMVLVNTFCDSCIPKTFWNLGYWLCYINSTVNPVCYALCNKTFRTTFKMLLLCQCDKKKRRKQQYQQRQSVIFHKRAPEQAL
Chain of Opioid and opioid-like NOP (ORL1) (P41146 whole entry, species assumed): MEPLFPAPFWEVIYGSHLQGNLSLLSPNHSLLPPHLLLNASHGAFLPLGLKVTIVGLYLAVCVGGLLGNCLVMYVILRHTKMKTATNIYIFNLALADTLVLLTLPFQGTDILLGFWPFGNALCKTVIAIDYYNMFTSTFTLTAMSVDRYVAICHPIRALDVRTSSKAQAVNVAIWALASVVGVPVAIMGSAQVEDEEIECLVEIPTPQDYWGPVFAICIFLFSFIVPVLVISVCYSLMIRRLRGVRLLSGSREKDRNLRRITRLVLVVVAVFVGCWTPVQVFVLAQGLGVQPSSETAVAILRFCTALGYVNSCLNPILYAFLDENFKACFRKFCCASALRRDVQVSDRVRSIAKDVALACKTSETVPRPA
Chain of Galanin GAL2 (O43603 whole entry): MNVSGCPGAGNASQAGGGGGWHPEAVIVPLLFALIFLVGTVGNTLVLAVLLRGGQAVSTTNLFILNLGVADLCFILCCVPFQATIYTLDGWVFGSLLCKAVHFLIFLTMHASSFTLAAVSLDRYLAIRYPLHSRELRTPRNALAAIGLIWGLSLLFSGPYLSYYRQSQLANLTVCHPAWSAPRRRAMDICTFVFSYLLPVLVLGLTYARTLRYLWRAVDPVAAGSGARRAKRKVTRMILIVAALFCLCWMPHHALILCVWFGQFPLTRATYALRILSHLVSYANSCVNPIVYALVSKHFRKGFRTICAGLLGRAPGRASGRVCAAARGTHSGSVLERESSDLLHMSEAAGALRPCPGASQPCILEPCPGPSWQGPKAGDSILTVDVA
T7 sequence (P08588 whole entry): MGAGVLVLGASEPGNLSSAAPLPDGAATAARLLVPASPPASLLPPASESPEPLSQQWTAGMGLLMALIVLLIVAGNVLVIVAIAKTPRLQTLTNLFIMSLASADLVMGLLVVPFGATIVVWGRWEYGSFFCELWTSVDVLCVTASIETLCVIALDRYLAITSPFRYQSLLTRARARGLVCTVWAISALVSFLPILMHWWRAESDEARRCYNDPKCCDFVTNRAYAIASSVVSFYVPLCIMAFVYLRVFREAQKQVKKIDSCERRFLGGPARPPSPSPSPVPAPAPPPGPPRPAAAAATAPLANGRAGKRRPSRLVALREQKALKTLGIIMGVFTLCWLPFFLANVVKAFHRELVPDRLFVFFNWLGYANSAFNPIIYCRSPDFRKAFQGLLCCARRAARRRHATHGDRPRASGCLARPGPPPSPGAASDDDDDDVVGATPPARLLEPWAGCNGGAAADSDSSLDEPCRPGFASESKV
Chain of Neurokinin NK1 (P25103 whole entry): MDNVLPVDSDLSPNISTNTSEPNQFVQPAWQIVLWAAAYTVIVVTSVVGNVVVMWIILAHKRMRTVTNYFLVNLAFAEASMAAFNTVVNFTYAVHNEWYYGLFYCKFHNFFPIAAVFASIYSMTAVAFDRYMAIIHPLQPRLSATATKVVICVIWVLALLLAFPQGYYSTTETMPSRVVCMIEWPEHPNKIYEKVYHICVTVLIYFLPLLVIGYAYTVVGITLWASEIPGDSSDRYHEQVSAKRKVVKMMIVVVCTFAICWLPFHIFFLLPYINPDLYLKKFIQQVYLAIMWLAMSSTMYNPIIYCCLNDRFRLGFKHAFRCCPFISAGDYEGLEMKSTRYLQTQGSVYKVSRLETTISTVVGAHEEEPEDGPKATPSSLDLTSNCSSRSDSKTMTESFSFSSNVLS
T9 sequence (P46098 24-478): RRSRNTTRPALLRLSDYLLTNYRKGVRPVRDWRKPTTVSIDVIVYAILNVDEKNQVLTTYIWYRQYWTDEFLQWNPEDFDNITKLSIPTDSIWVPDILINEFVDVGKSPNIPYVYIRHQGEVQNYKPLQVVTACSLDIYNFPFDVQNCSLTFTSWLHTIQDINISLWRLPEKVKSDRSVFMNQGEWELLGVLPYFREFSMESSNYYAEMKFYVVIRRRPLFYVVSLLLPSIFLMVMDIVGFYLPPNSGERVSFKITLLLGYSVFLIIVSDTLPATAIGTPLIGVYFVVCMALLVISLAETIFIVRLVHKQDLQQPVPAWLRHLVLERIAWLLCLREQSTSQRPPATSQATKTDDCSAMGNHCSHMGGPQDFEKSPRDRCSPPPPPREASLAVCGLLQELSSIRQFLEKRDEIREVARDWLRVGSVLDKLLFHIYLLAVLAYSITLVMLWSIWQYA

CC(=O)[C@@]1(C)CC[C@H]2[C@@H]3CC=C4C[C@@H](OCc5ccccc5)CC[C@]4(C)[C@H]3CC[C@@]21C [3Bn17MeP, 3β-benzyloxy, 17α-methyl-pregn-5-en-20-one]
inhibition at 10 µM (Muscarinic M1): -25% | % Inhibition (Serotonin 5-HT2B; 10 μM): 16% | Inhibition % (GABA BZD (central)): −16% | inhibition at 10 µM (Prostanoid EP2): 19% | % Inhibition (K+ channels KV): −15% | inhibition at 10 µM (Muscarinic M4): 2% | inhibition at 10 µM (Neurokinin NK1): 8% | inhibition at 10 µM (Serotonin 5-HT2A): -8% | inhibition at 10 µM (Endothelin ETA): 1% | % Inhibition (Purinergic P2Y): −2% | inhibition at 10 µM [1]: 1% | Inhibition % (GABA Cl- channel): 1% | Inhibition % (Growth factors PDGF): −13% | % Inhibition (Serotonin 5-HT5a; 10 μM): 2% | inhibition at 10 µM [2]: 20% | % Inhibition (Adrenergic beta1; 10 μM): 7% | Inhibition % (Glutamate PCP): 5% | inhibition at 10 µM (Galanin GAL2): -11% | inhibition at 10 µM (Melanocortin MC4): -10% | % Inhibition [3]: 2% | inhibition at 10 µM (Prostanoid IP (PGI2)): 0% | % Inhibition (Ca2+ channels Ca2+-L): 12% | inhibition at 10 µM (Chemokines CXCR2): 0% | inhibition at 10 µM (Muscarinic M3): 16% | inhibition at 10 µM (Histamine H2): 12% | Inhibition % (Cytokines TNF-alpha): 4% | inhibition at 10 µM (Neuropetide Y Y2): -6% | % Inhibition [4]: −3% | inhibition at 10 µM (Neurotensin NTS1 (NT1)): -13% | Inhibition % (Serotonin 5-HT3; 10 μM): 4%

CC(=O)[C@H]1CC[C@H]2[C@@H]3CC=C4C[C@@H](O)CC[C@]4(C)[C@H]3CC[C@]12C [pregnenolone, reference compound]
inhibition at 10 µM (Muscarinic M1; M1, 10 μM, read-out: % Inhibition): -14% | inhibition at 10 µM (Serotonin 5-HT2B): -38% | Inhibition % (GABA BZD (central)): > 40% | Inhibition % (GABA BZD (central); listed as PREG): −43% | inhibition at 10 µM (Prostanoid EP2): 24% | % Inhibition (K+ channels KV): −23% | inhibition at 10 µM (Muscarinic M4; M4, 10 μM, read-out: % Inhibition): -4% | inhibition at 10 µM (Neurokinin NK1): 17% | inhibition at 10 µM (Serotonin 5-HT2A; 5-HT2A, 10 μM, read-out: % Inhibition): -1% | inhibition at 10 µM (Endothelin ETA): -3% | % Inhibition (Purinergic P2Y): −3% | Inhibition % ([1]; BZD (periph), 10 μM): 42% | inhibition at 10 µM ([1]; BZD (periph), 10 μM, read-out: Inhibition %): > 40% | Inhibition % (GABA Cl- channel): 29% | Inhibition % (Growth factors PDGF): −15% | inhibition at 10 µM (Serotonin 5-HT5a): 11% | inhibition at 10 µM [2]: > 80% | Inhibition % ([2]; 10 μM): 87% | inhibition at 10 µM (Adrenergic beta1): 4% | Inhibition % (Glutamate PCP): 5% | inhibition at 10 µM (Galanin GAL2): 1% | inhibition at 10 µM (Melanocortin MC4): -15% | % Inhibition [3]: 2% | inhibition at 10 µM (Prostanoid IP (PGI2)): -12% | % Inhibition (Ca2+ channels Ca2+-L): −19% | inhibition at 10 µM (Chemokines CXCR2): -10% | inhibition at 10 µM (Muscarinic M3; M3, 10 μM, read-out: % Inhibition): 2% | inhibition at 10 µM (Histamine H2): 9% | Inhibition % (Cytokines TNF-alpha): 4% | inhibition at 10 µM (Neuropetide Y Y2): -9% | % Inhibition [4]: 9% | inhibition at 10 µM (Neurotensin NTS1 (NT1)): -19% | inhibition at 10 µM (Serotonin 5-HT3): 6%
